Laboratory results from US20250024846A1, “DEVELOPMENT OF FOOD-GRADE FUNGAL FERMENTATES WITH ANTIMICROBIAL ACTIVITY AND THE USE THEREOF” (Wisconsin Alumni Research Foundation, priority 2021, published 2025).

Tested on: Staphylococcus aureus
Assay: Agar diffusion disc test (zone of inhibition)
Assay type: cell-based
Conditions: positive control, 100 μg/mL (FIG. 2b)
Experimental: Extraction of fermentates. Screening of the antimicrobial activity of NP extracts produced via liquid-liquid extraction with various organic solvents was performed. The tested organic solvents (i.e., ethyl acetate, chloroform, diethyl ether, dichloromethane, tetrahydrofuran, toluene, EMW (mixture of ethyl acetate:methanol:water), CEF (mixture of chloroform:ethyl acetate:formic acid), and BEA (mixture of benzene:ethanol:ammonia hydroxide)) are described in Table 2. 20 mL of NP1 or NP2 was reacted with 20 mL of an organic solvent in 50 mL conical tubes and incubated overnight at 25±2° C. with shaking at 150 rpm. The mixtures were centrifuged at 5000 g and the organic layer was transferred to a new 50 mL conical tube. The extracts were evaporated until dry under gentle airflow. Then, the extracts were reconstituted in 1 mL of methanol and filtered with a sterile 0.45 μm filtration unit. The methanol solution was tested for antimicrobial activity.

CC1(C)S[C@@H]2[C@H](NC(=O)[C@H](N)c3ccccc3)C(=O)N2[C@H]1C(=O)O [ampicillin]
zone of inhibition at 100 µg/mL: ~30 mm
